Assay results reported in EP4471049A1 (Zealand Pharma A/S, priority 2023, dated 2024).
pIC50: −log10 of the molar value. *1 amine or outer side, *2 acyl side, *3 side chain or, on linkers, in order; H or OH if unused. Where a SMILES comes first, the peptide text is derived from it. Bridges are numbered along the chain shown (N, C = ends). [ ]: non-standard residue; d: D form. The star is where a group is joined. 2Nal = N[C@@H](Cc1ccc2ccccc2c1)C(=O)O; AEF = NCCOc1ccc(C[C@H](N)C(=O)O)cc1; X1 = O=C(Cc1ccc(CN[*:1])cc1)[*:2]; 3Pal = N[C@@H](Cc1cccnc1)C(=O)O; αMeL = CC(C)C[C@](C)(N)C(=O)O; CH2COCH2 = O=C(C[*:1])C[*:2]; NMeS = CN[C@@H](CO)C(=O)O; Pyrrolidide = C1CCN(*)C1; Dab = NCC[C@H](N)C(=O)O; βAla = NCCC(=O)O

Target: T1, human IL-23R (Homo sapiens, UniProt Q5VWK5)
T1 sequence (Q5VWK5 22-629): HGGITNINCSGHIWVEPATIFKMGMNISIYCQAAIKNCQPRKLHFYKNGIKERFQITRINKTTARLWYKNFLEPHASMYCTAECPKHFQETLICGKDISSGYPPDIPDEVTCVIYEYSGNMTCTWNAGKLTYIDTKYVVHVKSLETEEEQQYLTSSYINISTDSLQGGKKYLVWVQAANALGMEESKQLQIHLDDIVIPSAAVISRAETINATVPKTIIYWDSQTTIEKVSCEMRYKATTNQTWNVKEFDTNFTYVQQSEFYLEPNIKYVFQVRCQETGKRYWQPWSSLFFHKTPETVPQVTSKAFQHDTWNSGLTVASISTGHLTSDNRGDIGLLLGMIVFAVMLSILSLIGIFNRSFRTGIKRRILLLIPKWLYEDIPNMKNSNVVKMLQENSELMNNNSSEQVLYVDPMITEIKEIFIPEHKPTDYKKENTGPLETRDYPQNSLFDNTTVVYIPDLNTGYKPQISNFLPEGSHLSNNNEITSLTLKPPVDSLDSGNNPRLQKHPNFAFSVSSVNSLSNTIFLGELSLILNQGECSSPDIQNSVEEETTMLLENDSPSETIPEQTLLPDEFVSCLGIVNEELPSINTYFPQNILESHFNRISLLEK
Assay: biochemical
Details: for Emax: read-out: % displacement (hIL-23R binding)
Description: The compound binding affinity for IL-23R was estimated by the ability of compounds to displace a fluorophore-labelled reference compound from the human IL-23R. The assay principle relies on Bioluminescence Resonance Energy Transfer (BRET) between a fluorophore-labelled reference compound binding to the IL-23R part of a fusion protein consisting of the IL-23R fused to a Nanoluc luciferase enzyme (Nanoluc). The Nanoluc is placed in the N-terminus in close proximity to the binding domain of the ligand. Upon close proximity between the fluorophore of the fluorophore-labelled compound and the Nanoluc of the fusion protein, bioluminescence energy generated from conversion of a Nanoluc substrate, is transferred to the fluorophore resulting in an increase in BRET. In presence of an unlabelled compound, the unlabelled compound displaces the fluorophore-labelled peptide from its binding site resulting in a decrease in BRET. The concentration for which half of the fluorophore-labelled peptide is displaced by the unlabelled compound depends on the affinity of the compound for the IL-23R, and is termed the IC50 concentration.
The plasmid also contained a gene to confer resistance for the antibiotic hygromycin. A cell line stably expressing the Nluc-IL23R fusion protein was generated by transfection of HEK293 cells with the expression plasmid and selected with hygromycin for 3 weeks in Growth medium consisting of DMEM w/ Glutamax-I containing, 10% V/V FBS, 1% V/V P/S, 1 mM Sodium Pyruvate, and 1X NEAA, and 0.3 mg/mL hygromycin. The remaining cells were propagated and considered a stable expressing Nluc-IL23R fusion protein pool clone.
Cells expressing the Nluc-IL23R fusion protein were expanded in Growth medium and membranes prepared by homogenization of a cell pellet from 18 T175 flasks (4 °C in subsequent steps). The cell pellet was lysed Tris 10 mM, 7.5, 1 mM EDTA and protease inhibitors (Complete, Roche) and homogenized using a 15 mL glass-dounce by 50 strokes. The homogenate was spun at spin @1500 rpm for 10 min, the supernatant transferred to SV-34 tubes and spun at 40000g for 20 min at 4 °C to pellet the crude membranes. The supernatant was then removed, the pellet resuspended in 5 mL buffer containing 50 mM HEPES pH 7.4, 5 mM EGTA, and 5 mM MgCl2, and homogenized. Aliquots of the resuspended and homogenized membranes containing the Nluc-IL23R fusion protein were stored at -80 °C until use.
The plate was sealed with light impermeable plate seals, and incubated on an orbital shaker 400 rpm for 2 hours at room temperature. To determine the BRET ratio, the plate seal was removed and 25 µL of the Nanoluc substrate (Promega N1572) diluted 1:500 was added to each well and incubated for 1-2 minutes on an orbital shaker at 400 rpm. […] The BRET ratio was calculated as the fluorescence from the TAMRA/nanoluc bioluminescence.
Compound potency (IC50) and maximal displacement (% displacement) were estimated by computer-aided curve fitting using a 4-parameter logistic (4PL) non-linear model. […]
In this application, the inventors provide the data as IC50 values.

% displacement (hIL-23R binding) | pIC50 | Emax | Compound
105% | 8.27 | – | CC(C)C[C@]1(C)NC(=O)[C@H](Cc2ccc3ccccc3c2)NC(=O)[C@H](Cc2ccc(OCCN)cc2)NC(=O)[C@@H]2CSCC(=O)CSC[C@H](NC(=O)[C@H](CO)NC(=O)[C@H](Cc3cccnc3)NC(=O)CCNC(=O)CC[C@@H](C(=O)N[C@H](CCCNC(=N)N)C(N)=O)NC1=O)C(=O)N[C@@H](Cc1c[nH]c3ccccc13)C(=O)N[C@@H](CCC(N)=O)C(=O)N2 [Compound 1, [3-Aminopropanoyl](4c)*[3-(3-Pyridyl)-Ala]SC(2a)WQC(2a)[Y(2-aminoethoxy)][2-Nal][2-Me-Leu]E(4c)[{d}R]-[NH2]] ([βAla][3Pal]SCWQC[AEF][2Nal][αMeL]E[dR]-NH2; linker 4-7 via CH2COCH2; lactam N-11)
103% | 8.54 | – | CC(C)C[C@]1(C)NC(=O)[C@H](Cc2ccc3ccccc3c2)NC(=O)[C@H](Cc2ccc(OCCN)cc2)NC(=O)[C@@H]2CSCC(=O)CSC[C@H](NC(=O)[C@H](CO)NC(=O)CCNC(=O)[C@H](Cc3cccnc3)NC(=O)CC[C@@H](C(=O)N[C@H](CCCNC(=N)N)C(N)=O)NC1=O)C(=O)N[C@@H](Cc1c[nH]c3ccccc13)C(=O)N[C@@H](CCC(N)=O)C(=O)N2 [Compound 2, [3-(3-Pyridyl)-Ala](4c)*[3-Aminopropanoyl]SC(2a)WQC(2a)[Y(2-aminoethoxy)][2-Nal][2-Me-Leu]E(4c)[{d}R]-[NH2]] ([3Pal][βAla]SCWQC[AEF][2Nal][αMeL]E[dR]-NH2; linker 4-7 via CH2COCH2; lactam N-11)
– | 9.89 | 101% | CC(C)C[C@]1(C)NC(=O)[C@H](Cc2ccc3ccccc3c2)NC(=O)[C@H](Cc2ccc(OCCN)cc2)NC(=O)[C@@H]2CCNC(=O)CC[C@H](NC(=O)[C@H](CO)NC(=O)Cc3ccc(cc3)CNC(=O)CC[C@@H](C(=O)NC[C@@H](N[C@@H](Cc3cccnc3)C(N)=O)C(F)(F)F)NC1=O)C(=O)N[C@@H](Cc1c[nH]c3ccccc13)C(=O)N[C@@H](CCC(N)=O)C(=O)N2 [Compound 16, [4-Aminomethyl-phenylacetyl](1c)*SE(2c)WQ[Dab](2c)[Y(2-aminoethoxy)][2-Nal][2-Me-Leu]E(1c)[{d}Gly-CF3][3-(3-Pyridyl)-Ala]-[NH2]]
98% | – | – | CC(C)C[C@]1(C)NC(=O)[C@H](Cc2ccc3ccccc3c2)NC(=O)[C@H](Cc2ccc(OCCN)cc2)NC(=O)[C@@H]2CCNC(=O)CC[C@H](NC(=O)[C@H](CO)NC(=O)Cc3ccc(cc3)CNC(=O)CC[C@@H](C(=O)NC[C@H](N[C@@H](Cc3cccnc3)C(N)=O)C(F)(F)F)NC1=O)C(=O)N[C@@H](Cc1c[nH]c3ccccc13)C(=O)N[C@@H](CCC(N)=O)C(=O)N2 [Compound 17, [4-Aminomethyl-phenylacetyl](1c)*SE(2c)WQ[Dab](2c)[Y(2-aminoethoxy)][2-Nal][2-Me-Leu]E(1c)[Gly-CF3][3-(3-Pyridyl)-Ala]-[NH2]]
– | 10.82 | 96% | CNC(=O)[C@H](Cc1cccnc1)NC(=O)[C@H](CCN)NC(=O)[C@@H]1CCC(=O)NCc2ccc(cc2)CC(=O)N(C)[C@@H](CO)C(=O)N[C@H]2CCC(=O)NCC[C@H](NC(=O)[C@H](CCC(N)=O)NC(=O)[C@H](Cc3c[nH]c4ccccc34)NC2=O)C(=O)N[C@@H](Cc2ccc(OCCN)cc2)C(=O)N[C@@H](Cc2ccc3ccccc3c2)C(=O)N[C@@](C)(CC(C)C)C(=O)N1 [Compound 18, [4-Aminomethyl-phenylacetyl](1c)*[N-Me-Ser]E(2c)WQ[Dab](2c)[Y(2-aminoethoxy)][2-Nal][2-Me-Leu]E(1c)[Dab][3-(3-Pyridyl)-Ala]-[NHMe]] ([X1][NMeS]EWQ[Dab][AEF][2Nal][αMeL]E[Dab][3Pal]-NHMe; lactam 3-6, N-10)
103% | 10.27 | – | CNC(=O)[C@H](Cc1cncnc1)NC(=O)[C@H](CCN)NC(=O)[C@@H]1CCC(=O)NCc2ccc(cc2)CC(=O)N[C@@H](CO)C(=O)N[C@H]2CCC(=O)NCC[C@H](NC(=O)[C@H](CCC(N)=O)NC(=O)[C@H](Cc3c[nH]c4ccccc34)NC2=O)C(=O)N[C@@H](Cc2ccc(OCCN)cc2)C(=O)N[C@@H](Cc2ccc3ccccc3c2)C(=O)N[C@@](C)(CC(C)C)C(=O)N1 [Compound 19, [4-Aminomethyl-phenylacetyl](1c)*SE(2c)WQ[Dab](2c)[Y(2-aminoethoxy)][2-Nal][2-Me-Leu]E(1c)[Dab][3-(3,5-Pyrimidyl)-Ala]-[NHMe]]
– | – | 96% | CNC(=O)[C@H](Cc1cccnc1)NC(=O)[C@H](CCN)NC(=O)[C@@H]1CCC(=O)NCc2ccc(cc2)CC(=O)N[C@@H](CO)C(=O)N[C@H]2CCC(=O)NCC[C@H](NC(=O)[C@H](C)NC(=O)[C@H](Cc3c[nH]c4ccccc34)NC2=O)C(=O)N[C@@H](Cc2ccc(OCCN)cc2)C(=O)N[C@@H](Cc2ccc3ccccc3c2)C(=O)N[C@@](C)(CC(C)C)C(=O)N1 [Compound 22, [4-Aminomethyl-phenylacetyl](1c)*SE(2c)WA[Dab](2c)[Y(2-aminoethoxy)][2-Nal][2-Me-Leu]E(1c)[Dab][3-(3-Pyridyl)-Ala]-[NHMe]] ([X1]SEWA[Dab][AEF][2Nal][αMeL]E[Dab][3Pal]-NHMe; lactam 3-6, N-10)
97% | – | – | CNC(=O)[C@H](Cc1cccnc1)NC(=O)[C@H](CCN)NC(=O)[C@@H]1CCC(=O)NCc2ccc(cc2)CC(=O)N[C@@H](CO)C(=O)N[C@H]2CCC(=O)NCC[C@H](NC(=O)[C@H](Cc3ccccc3)NC(=O)[C@H](Cc3c[nH]c4ccccc34)NC2=O)C(=O)N[C@@H](Cc2ccc(OCCN)cc2)C(=O)N[C@@H](Cc2ccc3ccccc3c2)C(=O)N[C@@](C)(CC(C)C)C(=O)N1 [Compound 23, [4-Aminomethyl-phenylacetyl](1c)*SE(2c)WF[Dab](2c)[Y(2-aminoethoxy)][2-Nal][2-Me-Leu]E(1c)[Dab][3-(3-Pyridyl)-Ala]-[NHMe]] ([X1]SEWF[Dab][AEF][2Nal][αMeL]E[Dab][3Pal]-NHMe; lactam 3-6, N-10)
97% | 10.85 | – | CNC(=O)[C@H](Cc1cccnc1)NC(=O)[C@H](CCN)NC(=O)[C@@H]1CCC(=O)NCc2ccc(cc2)CC(=O)N[C@@H](CO)C(=O)N[C@H]2CCC(=O)NCC[C@H](NC(=O)[C@H](CCCCNC(C)=O)NC(=O)[C@H](Cc3c[nH]c4ccccc34)NC2=O)C(=O)N[C@@H](Cc2ccc(OCCN)cc2)C(=O)N[C@@H](Cc2ccc3ccccc3c2)C(=O)N[C@@](C)(CC(C)C)C(=O)N1 [Compound 24, [4-Aminomethyl-phenylacetyl](1c)*SE(2c)W[K(Ac)][Dab](2c)[Y(2-aminoethoxy)][2-Nal][2-Me-Leu]E(1c)[Dab][3-(3-Pyridyl)-Ala]-[NHMe]] ([X1]SEWK(Ac)[Dab][AEF][2Nal][αMeL]E[Dab][3Pal]-NHMe; lactam 3-6, N-10)
97% | – | – | CNC(=O)[C@H](Cc1cccnc1)NC(=O)[C@H](CCN)NC(=O)[C@@H]1CCC(=O)NCc2ccc(cc2)CC(=O)N[C@@H](CO)C(=O)N[C@H]2CCC(=O)NCC[C@H](NC(=O)[C@H](CCC(=O)N3CCCC3)NC(=O)[C@H](Cc3c[nH]c4ccccc34)NC2=O)C(=O)N[C@@H](Cc2ccc(OCCN)cc2)C(=O)N[C@@H](Cc2ccc3ccccc3c2)C(=O)N[C@@](C)(CC(C)C)C(=O)N1 [Compound 27, [4-Aminomethyl-phenylacetyl](1c)*SE(2c)W[Q(pyrrolidin)][Dab](2c)[Y(2-aminoethoxy)][2-Nal][2-Me-Leu]E(1c)[Dab][3-(3-Pyridyl)-Ala]-[NHMe]] ([X1]SEWE(Pyrrolidide)[Dab][AEF][2Nal][αMeL]E[Dab][3Pal]-NHMe; lactam 3-6, N-10)
